US8628750B2, “Cancer imaging and treatment” (Technische Universitat Munchen, priority 2006, dated 2014)
Where two headings read alike, the source gives them in different places. Numbered stars: 1 amine (or outer) side, 2 acyl side, 3 side chain; on linkers, the order of the positions; unused ones are H or OH. Square brackets hold non-standard residues; d marks the D form. Peptide text beside a SMILES is read from it. * marks the point of attachment. X3 = O=C(c1ccc(F)cc1)N(CCC[C@H](N[*:1])C(=O)[*:2])Cc1ccccc1; X1 = CN(CCC[C@H](C(=O)[*:2])N(C)[*:1])C(=O)c1ccc(F)cc1; X2 = O=C([C@H](CCCNCc1cccc2ccccc12)N[*:1])[*:2]; X4 = O=C([C@H](CCCNCc1ccc2ccccc2c1)N[*:1])[*:2]; 2Nal = N[C@@H](Cc1ccc2ccccc2c1)C(=O)O; Benzoyl(4-F) = O=C(c1ccc(F)cc1)*; dOrn = NCCC[C@@H](N)C(=O)O; Orn = NCCC[C@H](N)C(=O)O

Legend:
[1] = target: T1, human CXCR4 (Homo sapiens, UniProt P61073); experiment: cell-based; format: binding; parameters: Jurkat cells that endogenously express the CXCR4 receptor; endogenous in cells; host or cells: Jurkat (ATCC)
Description: For receptor binding assays cells were resuspended in PBS/0.2% BSA. A total of 200 μl of the suspension containing 400,000 cells (Jurkat, CMS5) or 200,000 cells (CMS5/CXCR4) were incubated with 25 μl of the tracer solution (containing 3.1 kBq, approx. 0.1 nM) and 25 μl of the diluent or the competitor at different concentrations. […] After shaking for 2 h at room temperature, the incubation was terminated by centrifugation at 700×g and 4° C. for 4 min. Cell pellets were washed once with cold PBS followed by a second centrifugation step or for internalization studies, two times with an acidic wash buffer (20 mM NaOAc, pH5.0). Cell bound radioactivity was determined by using a gamma counter. Experiments were repeated 2-3 times in duplicates or triplicates. IC50 values of the binding curves were calculated by nonlinear regression on a one-site or two-site competition based model using Prism 3.0 (Graph Pad Software, Inc, San Diego). KD and Bmax values were determined by nonlinear regression with the Prism 3.0 according to the manufacturer's protocol.

[2] = target: T1, human CXCR4
Description: CXCR4 expression on the cell surface of trypsinized cells was determined using a phycoerythrine (PE)-labeled monoclonal rat antibody with specificity for human CXCR4 (1D9, BD Biosciences Pharmingen, Heidelberg, Germany). Trypsinized cells were washed with FACS buffer (PBS, 0.5% FCS) and 1×10^6 cells were stained with 0.5 μg antibody for 30 min. in the dark at 4° C. Cells were extensively washed with ice-cold FACS buffer and analyzed by flow cytometry. Nonspecific staining was assessed by PE-conjugated rat IgG2b,κ (BD Biosciences Pharmingen, Heidelberg, Germany). […] CXCR-4 staining was plotted against EGFP fluorescence (FL1).
(adapted from protocols published previously)[7, 8]; controls were incubated with diluent (PBS/0.1% BSA). Samples were immediately transferred to ice to avoid further internalization, centrifuged, washed with PBS/0.5% BSA and FACS staining for CXCR4 was performed as indicated above.

T1 sequence (P61073 whole entry): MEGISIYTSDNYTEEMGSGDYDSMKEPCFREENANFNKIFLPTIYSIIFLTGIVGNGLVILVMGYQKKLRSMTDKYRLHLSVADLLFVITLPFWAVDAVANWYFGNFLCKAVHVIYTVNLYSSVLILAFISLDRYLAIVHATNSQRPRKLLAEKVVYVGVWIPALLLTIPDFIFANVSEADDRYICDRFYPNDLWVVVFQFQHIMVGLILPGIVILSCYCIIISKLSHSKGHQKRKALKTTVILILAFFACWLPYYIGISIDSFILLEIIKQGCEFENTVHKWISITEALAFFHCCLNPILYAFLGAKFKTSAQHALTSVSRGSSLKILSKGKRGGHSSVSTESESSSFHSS

Compound | IC50 [1] [nM] | other results
N=C(N)NCCC[C@@H]1NC(=O)[C@H](CCCN(Cc2ccccc2)C(=O)c2ccc(F)cc2)NC(=O)[C@@H](Cc2ccc(O)cc2)NC(=O)CNC(=O)[C@H](Cc2ccc3ccccc3c2)NC1=O [cyc[D-Tyr-Orn(Bz,FB)-Arg-Nal-Gly]] (cyclo([2Nal]G[dY][X3]R)) | 100 | 
CN(CCC[C@@H]1C(=O)N[C@@H](CCCNC(=N)N)C(=O)N[C@@H](Cc2ccc3ccccc3c2)C(=O)NCC(=O)N[C@H](Cc2ccc(O)cc2)C(=O)N1C)C(=O)c1ccc(F)cc1 [cyc[D-Tyr-(Me)D-Orn(Me,FB)-Arg-Nal-Gly]] (cyclo([2Nal]G[dY][X1]R)) | 59 | 
N=C(N)NCCC[C@@H]1NC(=O)[C@H](CCCNC(=N)N)NC(=O)[C@@H](Cc2ccc(O)cc2)NC(=O)CNC(=O)[C@H](Cc2ccc3ccccc3c2)NC(=O)[C@H](Cc2ccc3ccccc3c2)NC1=O [BL 42, cyc[D-Tyr-Arg-Arg-Nal-Nal-Gly]] (cyclo([2Nal][2Nal]G[dY]RR)) | > 1000 | 
N=C(N)NCCC[C@@H]1NC(=O)[C@H](CCCNCc2cccc3ccccc23)NC(=O)[C@@H](Cc2ccc(O)cc2)NC(=O)CNC(=O)[C@H](Cc2ccc3ccccc3c2)NC1=O [cyc[D-Tyr-Orn(N1)-Arg-Nal-Gly]] (cyclo([dY][X2]R[2Nal]G)) | 40 ± 3 | 
N=C(N)NCCC[C@@H]1NC(=O)[C@H](CCCNCc2ccc3ccccc3c2)NC(=O)[C@@H](Cc2ccc(O)cc2)NC(=O)CNC(=O)[C@H](Cc2ccc3ccccc3c2)NC1=O [cyc[D-Tyr-Orn(N2)-Arg-Nal-Gly]] (cyclo([dY][X4]R[2Nal]G)) | 49 ± 1 | 
N=C(N)NCCC[C@@H]1NC(=O)[C@H](CCCNC(=O)c2ccc(F)cc2)NC(=O)[C@@H](Cc2ccc(O)cc2)NC(=O)CNC(=O)[C@H](Cc2ccc3ccccc3c2)NC1=O [cyc[D-Tyr-Orn(FB)-Arg-Nal-Gly]] (cyclo([dY][Orn](Benzoyl(4-F))R[2Nal]G)) | 11 | 
SDF-1α |  | cells stained positive for CXCR4 after pre-incubation ([2]; CMS5/CXCR4 cells, 100 nM SDF-1α, 1 hr at 37° C., control-treated […]): 54.7%; mean fluorescence intensity of CXCR4 staining ([2]; CMS5/CXCR4 cells, mock treated 209.0): 80.5; mean fluorescence intensity of CXCR4 staining ([2]; Jurkat cells, drop from 385.4): 155.4; CXCR4-background staining ([2]; parental CMS5 cells, in the presence of SDF-1α, from 7.9): 2.7%
N=C(N)NCCC[C@@H]1NC(=O)[C@@H](CCCNC(=O)c2ccc(F)cc2)NC(=O)[C@@H](Cc2ccc(O)cc2)NC(=O)CNC(=O)[C@H](Cc2ccc3ccccc3c2)NC1=O [cyc[D-Tyr-D-Orn(FB)-Arg-Nal-Gly]] (cyclo([2Nal]G[dY][dOrn](Benzoyl(4-F))R)) | 86 | 
